From publication PMC4287394 (Clinical cancer research : an official journal of the …, 2014)
pIC50: −log10 of the molar value.

How the values were obtained:
[1] = test system: purified recombinant human PI3K p110α; details: read-out: IC50 p110α; purified recombinant human PI3K isoforms; cited from earlier work
[2] = test system: IGROV1 ovarian cancer xenografts; details: oral dose of 150mg/kg; IGROV1 ovarian cancer xenograft; cited from earlier work
PI3K signaling = experiment: Multimodal pharmacodynamic assessment; assay type: in vivo, human; details: regardless of molecular genetic status
[3] = Plasma pharmacokinetics in patients; assay type: in vivo, human; details: for half-life / AUC(0-t) / Cmax / Tmax: human, plasma; for AUC(0-t): AUC 0-24, geometric mean; for Cmax: geometric mean; for Tmax: median
[4] = test system: purified recombinant human PI3K p110β; details: read-out: IC50 p110β; purified recombinant human PI3K isoforms; cited from earlier work
[5] = cited from earlier work
mTOR = details: cited from earlier work
[6] = test system: U87MG glioblastoma xenografts; details: oral dose of 150mg/kg; U87MG glioblastoma xenograft; cited from earlier work
[7] = oral, 15 mg, Day 1, 15 mg QD, 4 patients
[8] = oral, 15 mg, Day 15, 15 mg QD, 4 patients
[9] = oral, 30 mg, Day 1, 30 mg QD, 3 patients
[10] = oral, 30 mg, Day 15, 30 mg QD, 3 patients
[11] = oral, 45 mg, Day 1, 45 mg QD, 4 patients
[12] = oral, 45 mg, Day 15, 45 mg QD, 4 patients
[13] = oral, 60 mg, Day 1, 60 mg QD, 4 patients
[14] = oral, 60 mg, Day 15, 60 mg QD, 3 patients
[15] = oral, 80 mg, Day 1, 80 mg QD, 3 patients
[16] = oral, 80 mg, Day 15, 80 mg QD, 3 patients
[17] = oral, 100 mg, Day 1, 100 mg QD, 5 patients
[18] = oral, 100 mg, Day 15, 100 mg QD, 3 patients
[19] = oral, 130 mg, Day 1, 130 mg QD, 3 patients
[20] = oral, 130 mg, Day 15, 130 mg QD, 3 patients
[21] = oral, 180 mg, Day 1, 180 mg QD, 3 patients
[22] = oral, 180 mg, Day 15, 180 mg QD, 3 patients
[23] = oral, 245 mg, Day 1, 245 mg QD, 3 patients
[24] = oral, 245 mg, Day 15, 245 mg QD, 3 patients
[25] = oral, 330 mg, Day 1, 330 mg QD, 17 patients
[26] = oral, 330 mg, Day 15, 330 mg QD, 17 patients
[27] = oral, 340 mg, Day 1, 340 mg QD, 7 patients
[28] = oral, 340 mg, Day 15, 340 mg QD, 6 patients
[29] = oral, 400 mg, Day 1, 400 mg QD, 1 patient
[30] = oral, 450 mg, Day 1, 450 mg QD, 3 patients
[31] = oral, 450 mg, Day 15, 450 mg QD, 3 patients

CS(=O)(=O)N1CCN(Cc2cc3nc(-c4cccc5[nH]ncc45)nc(N4CCOCC4)c3s2)CC1 [pictilisib, 2-(1H-indazol-4-yl)-6-(4-methanesulfonyl-piperazin-1-ylmethyl)-4-morpholin-4-yl-t hieno[3,2-d]pyrimidine]
pIC50 [1]: 8.52 | growth inhibition [2]: 80% | Dose levels with on-target pharmacodynamic activity (PI3K signaling): ≥ 100 mg | Increase in exposure (Cmax and AUC0-24) with dose ([3]; across the dose levels studied, 15-450mg): dose-proportional | half-life ([3]; oral): 13.1 to 24.1 h | half-life ([3]; oral, 15 mg): 19.2 h | AUC(0-t) [3, 7]: 0.978 µM·h | AUC(0-t) [3, 8]: 1.35 µM·h | Cmax [3, 7]: 112 nM | Cmax [3, 8]: 116 nM | Tmax [3, 7]: 2 h | Tmax [3, 8]: 1.5 h | half-life ([3]; oral, 30 mg): 24.1 h | AUC(0-t) [3, 9]: 1.18 µM·h | AUC(0-t) [3, 10]: 1.9 µM·h | Cmax [3, 9]: 144 nM | Cmax [3, 10]: 179 nM | Tmax [3, 9]: 2 h | Tmax [3, 10]: 1 h | half-life ([3]; oral, 45 mg): 19.5 h | AUC(0-t) [3, 11]: 2.77 µM·h | AUC(0-t) [3, 12]: 4.09 µM·h | Cmax [3, 11]: 362 nM | Cmax [3, 12]: 436 nM | Tmax [3, 11]: 2 h | Tmax [3, 12]: 2 h | half-life ([3]; oral, 60 mg): 18.8 h | AUC(0-t) [3, 13]: 2.02 µM·h | AUC(0-t) [3, 14]: 2.78 µM·h | Cmax [3, 13]: 242 nM | Cmax [3, 14]: 270 nM | Tmax [3, 13]: 2 h | Tmax [3, 14]: 3 h | half-life ([3]; oral, 80 mg): 20.1 h | AUC(0-t) [3, 15]: 5.45 µM·h | AUC(0-t) [3, 16]: 9.86 µM·h | Cmax [3, 15]: 632 nM | Cmax [3, 16]: 779 nM | Tmax [3, 15]: 2 h | Tmax [3, 16]: 3 h | half-life ([3]; oral, 100 mg): 14.6 h | AUC(0-t) [3, 17]: 3.19 µM·h | AUC(0-t) [3, 18]: 5.64 µM·h | Cmax [3, 17]: 362 nM | Cmax [3, 18]: 751 nM | Tmax [3, 17]: 2 h | Tmax [3, 18]: 2 h | half-life ([3]; oral, 130 mg): 13.1 h | AUC(0-t) [3, 19]: 2.99 µM·h | AUC(0-t) [3, 20]: 5.03 µM·h | Cmax [3, 19]: 359 nM | Cmax [3, 20]: 457 nM | Tmax [3, 19]: 2 h | Tmax [3, 20]: 1 h | half-life ([3]; oral, 180 mg): 17.1 h | AUC(0-t) [3, 21]: 5.95 µM·h | AUC(0-t) [3, 22]: 8.25 µM·h | Cmax [3, 21]: 611 nM | Cmax [3, 22]: 783 nM | Tmax [3, 21]: 2 h | Tmax [3, 22]: 1 h | half-life ([3]; oral, 245 mg): 16.8 h | AUC(0-t) [3, 23]: 8.18 µM·h | AUC(0-t) [3, 24]: 11.3 µM·h | Cmax [3, 23]: 994 nM | Cmax [3, 24]: 1370 nM | Tmax [3, 23]: 2 h | Tmax [3, 24]: 1 h | half-life ([3]; oral, 330 mg): 15.7 h | AUC(0-t) [3, 25]: 14.4 µM·h | AUC(0-t) [3, 26]: 22.8 µM·h | Cmax [3, 25]: 1520 nM | Cmax [3, 26]: 2070 nM | Tmax [3, 25]: 2 h | Tmax [3, 26]: 3 h | half-life ([3]; oral, 340 mg): 20.9 h | AUC(0-t) [3, 27]: 14.9 µM·h | AUC(0-t) [3, 28]: 16.5 µM·h | Cmax [3, 27]: 1680 nM | Cmax [3, 28]: 1950 nM | Tmax [3, 27]: 2 h | Tmax [3, 28]: 1 h | half-life ([3]; oral, 400 mg): 14.8 h | AUC(0-t) [3, 29]: 15.6 µM·h | Cmax [3, 29]: 1650 nM | Tmax [3, 29]: 2 h | half-life ([3]; oral, 450 mg): 15 h | AUC(0-t) [3, 30]: 13.9 µM·h | AUC(0-t) [3, 31]: 23.5 µM·h | Cmax [3, 30]: 1950 nM | Cmax [3, 31]: 2640 nM | Tmax [3, 30]: 2 h | Tmax [3, 31]: 2 h | Tmax ([3]; po, fasting, all doses): 2 h | pIC50 [4]: 7.48 | Central nervous system (CNS) penetration compared with BKM120 [5]: lower | fold less activity against mTOR compared to p110α (mTOR): 193 fold | growth inhibition [6]: 98%
